The values that follow come from patent US20240398812A1 (Caraway Therapeutics, Inc., priority 2021, published 2024).

One assay has as its target human TRPML1 (Homo sapiens, UniProt Q9GZU1). As to the kind of experiment: Fluorescent TRPML1 assay (Fluo4-AM calcium fluorescence, HEK-293 Trex cells). It is filed as cell-based. Conditions: Table 3, compounds 201-283. In a few lines: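 Agonist EC50 from non-linear regression of percent activity versus on-plate controls, calcium signal read at 480/540 nm. Compounds spanned 6 nM–20 μM final in triplicate. Cells: doxycycline-induced HEK-293 Trex with cell-surface human TRPML1 mutant, Fluo4-AM loaded, in Ringer's containing 10 mM calcium.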

The next assay addresses T1, TRPML2 (Homo sapiens, UniProt Q8IZK6).
T1 construct: expressed in transfected cells
T1 sequence (Q8IZK6 1-566): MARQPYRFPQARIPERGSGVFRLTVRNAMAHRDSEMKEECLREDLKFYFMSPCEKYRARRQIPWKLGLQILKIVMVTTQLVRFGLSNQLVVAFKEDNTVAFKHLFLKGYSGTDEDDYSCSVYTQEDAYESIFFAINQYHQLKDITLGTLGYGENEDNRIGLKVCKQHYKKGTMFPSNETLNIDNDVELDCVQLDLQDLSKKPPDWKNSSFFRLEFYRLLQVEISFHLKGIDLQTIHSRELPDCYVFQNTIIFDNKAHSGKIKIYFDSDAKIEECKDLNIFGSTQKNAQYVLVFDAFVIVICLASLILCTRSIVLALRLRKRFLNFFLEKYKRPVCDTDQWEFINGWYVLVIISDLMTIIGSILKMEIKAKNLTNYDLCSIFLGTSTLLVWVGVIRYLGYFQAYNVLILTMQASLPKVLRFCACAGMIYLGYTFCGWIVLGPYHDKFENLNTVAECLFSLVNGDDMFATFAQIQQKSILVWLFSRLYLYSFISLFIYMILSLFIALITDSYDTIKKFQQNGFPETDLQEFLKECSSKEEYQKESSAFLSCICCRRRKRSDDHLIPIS
As to the kind of experiment: Fluorescent TRPML2 assay (as for TRPML1). In kind it is cell-based. Conditions: Table 3, compounds 201-283. The method in brief: (§1)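 EC50 came from non-linear regression of percent activity, set against on-plate positive and negative controls, using Fluo4 fluorescence (ex 480, em 540 nm). Compounds ran in triplicate from 6 nM to 20 µM final in half-log steps. Doxycycline-induced (0.5 ug/mL) HEK-293 Trex cells expressing surface-directed mutant channel were in 10 mM calcium Ringer's.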

A further assay deals with T2, TRPML3 (Homo sapiens, UniProt Q8TDD5).
T2 construct: expressed in transfected cells
T2 sequence (Q8TDD5 1-553): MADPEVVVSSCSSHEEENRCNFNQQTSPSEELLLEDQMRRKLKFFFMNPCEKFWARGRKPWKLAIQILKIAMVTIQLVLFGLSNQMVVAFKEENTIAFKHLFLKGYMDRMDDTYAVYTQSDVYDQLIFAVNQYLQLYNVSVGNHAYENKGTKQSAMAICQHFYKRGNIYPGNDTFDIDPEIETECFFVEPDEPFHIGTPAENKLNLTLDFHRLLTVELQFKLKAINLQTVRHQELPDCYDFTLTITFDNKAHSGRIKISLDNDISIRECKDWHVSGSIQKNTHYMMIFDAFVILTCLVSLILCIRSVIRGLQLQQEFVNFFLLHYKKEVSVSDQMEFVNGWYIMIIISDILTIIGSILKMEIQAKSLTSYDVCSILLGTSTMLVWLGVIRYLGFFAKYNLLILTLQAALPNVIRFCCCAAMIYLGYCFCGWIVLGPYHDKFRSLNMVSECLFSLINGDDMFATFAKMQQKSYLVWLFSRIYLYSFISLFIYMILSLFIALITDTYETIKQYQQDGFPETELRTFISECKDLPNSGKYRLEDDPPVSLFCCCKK
Nature of the assay: Fluorescent TRPML3 assay (as for TRPML1). In kind it is cell-based. The following applies: Table 3, compounds 201-283. The method in brief:
as §1

The test system of another assay is TRPMLs. Conditions: high concentrations needed; HEK293 cells expressing plasma-membrane TRPML1; cited from earlier work.

Chain of human TRPML1 (Q9GZU1 whole entry L15A/L16A/L577A/L578A, form open): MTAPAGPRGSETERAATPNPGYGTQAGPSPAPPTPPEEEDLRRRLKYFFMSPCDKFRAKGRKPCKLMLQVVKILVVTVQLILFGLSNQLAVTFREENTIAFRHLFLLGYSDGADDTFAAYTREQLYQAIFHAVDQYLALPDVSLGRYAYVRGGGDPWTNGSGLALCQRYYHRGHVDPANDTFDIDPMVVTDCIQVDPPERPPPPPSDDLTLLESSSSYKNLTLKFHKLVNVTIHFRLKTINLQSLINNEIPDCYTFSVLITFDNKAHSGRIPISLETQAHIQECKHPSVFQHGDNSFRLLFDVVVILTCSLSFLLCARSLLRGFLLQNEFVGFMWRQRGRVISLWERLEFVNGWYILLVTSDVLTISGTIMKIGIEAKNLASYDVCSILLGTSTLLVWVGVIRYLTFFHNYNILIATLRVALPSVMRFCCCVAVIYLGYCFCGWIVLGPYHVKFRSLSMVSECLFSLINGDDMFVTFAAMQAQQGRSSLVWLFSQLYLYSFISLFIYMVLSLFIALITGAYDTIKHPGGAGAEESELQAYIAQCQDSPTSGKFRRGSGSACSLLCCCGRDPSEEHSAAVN

On to `C[C@H]1CN(C(=O)C2(F)CC2)CCN1c1ncnc2c1c(N1CCCC1)cn2-c1cccc(Cl)c1` [Compound 278, (S)-(4-(7-(3-chlorophenyl)-5-(pyrrolidin-1-yl)-7H-pyrrolo[2,3-d]pyrimidin-4-yl)-3-methylpiperazin-1-yl)(1-fluorocyclopropyl)methanone], for which the EC50 on human TRPML1 is under 100 nM; on TRPML2, 100 to 500 nM; on TRPML3, 100 to 500 nM.

In the case of `C[C@@H]1CN(c2ncnc3c2c(N2CCCC2)cn3-c2cccc(Cl)c2)CCN1C(=O)C1(F)CC1` [Compound 279, (R)-(4-(7-(3-chlorophenyl)-5-(pyrrolidin-1-yl)-7H-pyrrolo[2,3-d]pyrimidin-4-yl)-2-methylpiperazin-1-yl)(1-fluorocyclopropyl)methanone], the values for the EC50 at human TRPML1, on TRPML2 and at TRPML3 were 100 to 500 nM, 500 to 2000 nM and 500 to 2000 nM, respectively.

Take `C[C@@H]1CN(c2ncnc3c2c(N2CCCC2)cn3-c2cccc(Cl)c2)[C@@H](C)CN1C(=O)C1(F)CC1` [Compound 280, ((2R,5S)-4-(7-(3-chlorophenyl)-5-(pyrrolidin-1-yl)-7H-pyrrolo[2,3-d]pyrimidin-4-yl)-2,5-dimethylpiperazin-1-yl)(1-fluorocyclopropyl)methanone]: the EC50 lay within 100 to 500 nM at human TRPML1, 500 to 2000 nM at TRPML2 and 500 to 2000 nM at TRPML3.

Consider `COC(C)(C)C(=O)N1C[C@H](C)N(c2ncnc3c2c(-c2ccccc2)cn3-c2cc(C#N)ccn2)C[C@H]1C` [Compound 282, 2-(4-((2S,5R)-4-(2-methoxy-2-methylpropanoyl)-2,5-dimethylpiperazin-1-yl)-5-phenyl-7H-pyrrolo[2,3-d]pyrimidin-7-yl)isonicotinonitrile], for which the EC50 at human TRPML1, at TRPML2 and on TRPML3 was under 100 nM in each case.

As to `COC1(C(=O)N2C[C@H](C)N(c3ncnc4c3c(-c3ccccc3)cn4-c3cc(C#N)ccn3)C[C@H]2C)CC1` [Compound 283, 2-(4-((2S,5R)-4-(1-methoxycyclopropane-1-carbonyl)-2,5-dimethylpiperazin-1-yl)-5-phenyl-7H-pyrrolo[2,3-d]pyrimidin-7-yl)isonicotinonitrile], the figures for the EC50 at human TRPML1, on TRPML2 and at TRPML3 were under 100 nM, 100 to 500 nM and under 100 nM, respectively.

`CC1CC(C)(C)N(C(=O)CN2C(=O)c3ccccc3C2=O)c2ccccc21` (stereo not shown) [ML-SA1]: the “concentration needed to effectively activate TRPMLs” value in the assay on TRPMLs is about 10 µM.

In general, EC50 refers to the concentration needed to bring the measured effect to its halfway point.
